Measured values: paper PMC11864979, “First-in-class ultralong-target-residence-time p38α inhibitors as a mitosis-targeted therapy for colorectal cancer” (Nature Cancer, 2025)
Where “and” joins values, the source holds several entries; their conditions need not be identical. Equal entries are not always repeated.

Experiments:
[1] = test system: KAP liver metastasis in Rag2^−/− mice; assay: survival of Rag2^−/− mice with KAP liver metastasis; type: in vivo, mouse
Description: Subcutaneous injection, splenic seeding or cecum injection of organoids was performed in 8–10-week-old C57BL/6 N/Crl, Rag2^−/− (B6.Cg-Rag2^tm1.1Cgn/J), or CB17 Scid beige (CB17.Cg-Prkdc^scidLyst^bg-J/Crl) mice, obtained from Charles River. The organoids were dissociated into single cells, washed with PBS and injected in a 1:1 mixture of PBS and Matrigel. For murine organoids, 1 × 10^5 cells were injected into the left and right flanks or the spleen capsule and 2 × 10^6 cells were injected into the cecum wall. For human organoids, 4 × 10^5 cells were injected into the flanks of CB17 Scid beige mice. For splenic seeding and cecum injection, mice were anaesthetized using ketamine (100 mg kg^−1, intraperitoneally) and xylazin (10 mg/kg, intraperitoneally) in NaCl and a small laparotomy below the thorax was performed.
No mice were excluded during treatment studies.

340 wild-type kinases [2] = molecular target: T1, 340 wild-type kinases (Homo sapiens, UniProt Q9UPE1); assay: selectivity profiling in a panel of 340 wild-type kinases (Reaction Biology Europe); type: binding; conditions: STK23; 1 µM; read-out: residual activity
T1 construct: purchased Reaction Biology Europe
From the text: (§1) Potential interactions between 2015 and 340 wild-type kinases were checked by means of a competition binding assay performed by Reaction Biology Europe (Supplementary Table 15).

340 wild-type kinases [3] = molecular target: T2, 340 wild-type kinases (Homo sapiens, UniProt Q9UQM7); assay: as above; type: binding; conditions: CAMK2A; 0.2 µM; read-out: residual activity
T2 construct: purchased Reaction Biology Europe
From the text: as §1

340 wild-type kinases [4] = molecular target: T3, 340 wild-type kinases (Homo sapiens, UniProt P25098); assay: as above; type: binding; conditions: 1 µM 2015; read-out: GRK2 residual activity
T3 construct: purchased Reaction Biology Europe
T3 sequence (P25098 1-689): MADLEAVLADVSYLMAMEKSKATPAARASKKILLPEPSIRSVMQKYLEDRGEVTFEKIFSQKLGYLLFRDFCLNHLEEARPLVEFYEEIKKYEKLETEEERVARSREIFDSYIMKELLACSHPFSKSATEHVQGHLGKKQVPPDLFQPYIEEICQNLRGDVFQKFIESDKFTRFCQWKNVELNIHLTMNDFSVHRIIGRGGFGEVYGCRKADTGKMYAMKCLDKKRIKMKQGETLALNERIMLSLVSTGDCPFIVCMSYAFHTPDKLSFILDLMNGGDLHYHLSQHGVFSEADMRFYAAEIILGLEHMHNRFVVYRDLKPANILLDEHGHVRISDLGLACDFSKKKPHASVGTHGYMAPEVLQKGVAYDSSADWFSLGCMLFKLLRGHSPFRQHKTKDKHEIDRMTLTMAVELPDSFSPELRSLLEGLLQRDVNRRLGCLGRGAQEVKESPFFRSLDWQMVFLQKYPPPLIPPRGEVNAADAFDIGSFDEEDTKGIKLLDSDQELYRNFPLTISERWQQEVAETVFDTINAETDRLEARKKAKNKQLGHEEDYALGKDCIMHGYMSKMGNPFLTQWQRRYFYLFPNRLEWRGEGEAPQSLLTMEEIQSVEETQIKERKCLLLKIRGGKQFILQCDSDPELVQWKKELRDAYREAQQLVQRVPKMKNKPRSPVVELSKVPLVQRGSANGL
From the text: as §1

immune cells = assay: FACS quantification of immune cells in blood, spleen, liver and tumors of treated mice; type: in vivo, mouse; conditions: for CD4+, % of CD3+ cells / CD8+, % of CD3+ cells / CD69+ % of CD4+ T cells / CD69+ % of CD8+ T cells / CD69+ % of T cells: single animals; for CD4+, % of CD3+ cells / CD8+, % of CD3+ cells: Fig. 6f; for CD69+ % of CD4+ T cells / CD69+ % of CD8+ T cells / CD69+ % of T cells: Fig. 6g; for B cells, % of living cells / CD4+ T cells, % of living cells / CD8+ T cells, % of living cells / Dendritic cells, % of living cells / Granulocytes, % of living cells / Monocytes, % of living cells / NK cells, % of living cells / T cells, % of living cells: spleen, 4 d of treatment
Description: To determine immune cells, cell suspensions of peripheral blood, spleen, liver or tumors were prepared. Cells were lysed with ammonium chloride buffer ([…], 0.1 mM EDTA and 0.150 mM KHCO3) to eliminate erythrocytes and were stained with antibodies from Biolegend and the live–dead fixable aqua dead cell stain kit (Thermo Fisher Scientific; dilution: 1:1,000). All used antibodies and dilutions are listed in the Nature Portfolio Reporting Summary. Cells were analyzed with the LSR Fortessa (BD). Samples were gated on single viable cells and the percentage of NK cells (NK1.1^+CD3^−), T cells (CD3^+NK1.1^−), CD4^+ T cells (CD3^+NK1.1^−CD4^+CD8a^−), CD8^+ T cells (CD3^+NK1.1^−CD8a^+CD4^−), B cells (CD3^−NK1.1^−CD19^+Ly6G^−), dendritic cells (CD3^−NK1.1^−CD19^−CD11c^+), monocytes (CD3^−NK1.1^−CD19^−CD11c^−Ly6Ghigh^+CD16/32low^+) and granulocytes (CD3^−NK1.1^−CD19^−CD11c^−Ly6G^+CD16/32high^+) was calculated.

KAP^2D cells = assay: cell size and DNA content analysis in KAP^2D cells (flow cytometry); type: cell-based, mouse; conditions: 1 µM, 1 day
Description: For DNA content analysis, cells were fixed with ethanol, washed and resuspended in PBS containing 50 µg ml^−1 propidium iodide (Invitrogen) and 250 µg ml^−1 RNase A (Qiagen). Apoptosis was analyzed with the FITC annexin V apoptosis detection kit (Biolegend). Both measurements were performed with FACS Canto II (BD) and physical parameters were used to exclude cell debris and cell doublets.

T1 sequence (Q9UPE1 whole entry): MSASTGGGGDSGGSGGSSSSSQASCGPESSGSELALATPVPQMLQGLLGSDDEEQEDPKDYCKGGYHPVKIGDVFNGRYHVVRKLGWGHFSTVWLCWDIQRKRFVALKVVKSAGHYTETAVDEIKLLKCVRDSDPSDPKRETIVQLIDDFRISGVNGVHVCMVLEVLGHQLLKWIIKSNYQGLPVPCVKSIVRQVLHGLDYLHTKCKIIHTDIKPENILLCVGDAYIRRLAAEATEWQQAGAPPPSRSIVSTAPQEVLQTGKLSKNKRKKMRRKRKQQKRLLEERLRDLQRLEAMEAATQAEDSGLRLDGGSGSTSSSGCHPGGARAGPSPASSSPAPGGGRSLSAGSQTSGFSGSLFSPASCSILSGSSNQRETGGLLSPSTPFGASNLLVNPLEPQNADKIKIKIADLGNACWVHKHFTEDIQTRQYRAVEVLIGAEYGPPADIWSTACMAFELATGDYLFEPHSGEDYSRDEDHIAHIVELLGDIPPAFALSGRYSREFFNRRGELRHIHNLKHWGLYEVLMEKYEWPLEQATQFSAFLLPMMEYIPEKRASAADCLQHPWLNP
T2 sequence (Q9UQM7 whole entry): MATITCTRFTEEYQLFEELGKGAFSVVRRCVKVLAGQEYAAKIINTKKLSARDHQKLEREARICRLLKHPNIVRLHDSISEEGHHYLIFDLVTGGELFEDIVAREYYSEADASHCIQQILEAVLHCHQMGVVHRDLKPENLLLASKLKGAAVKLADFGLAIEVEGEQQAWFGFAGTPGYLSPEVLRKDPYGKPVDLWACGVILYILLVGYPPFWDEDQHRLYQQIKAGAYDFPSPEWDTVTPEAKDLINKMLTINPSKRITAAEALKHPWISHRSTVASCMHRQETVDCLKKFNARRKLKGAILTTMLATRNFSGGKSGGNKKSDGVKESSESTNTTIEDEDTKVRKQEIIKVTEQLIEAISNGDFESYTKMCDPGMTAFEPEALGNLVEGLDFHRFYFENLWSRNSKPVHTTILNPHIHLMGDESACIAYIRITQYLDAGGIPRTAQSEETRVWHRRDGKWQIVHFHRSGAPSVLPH

For `CNC(=O)c1ccc2c(c1)C(=O)c1ccc(Nc3ccc(F)c(NC(=O)C4CC4)c3)cc1CC2` [Compound 2015], the “treatment response in Rag2^−/− mice (in words)” value ([1]; KAP liver metastasis) was “strong treatment response”, the Survival ([1]; single animals, 1 = event, Fig. 6i) was 40 d of treatment and 34 d of treatment and 32 d of treatment and 39 d of treatment and 38 d of treatment and 25 d of treatment and the remaining activity at 1 µM (340 wild-type kinases [2]) was 94.1%. The remaining activity at 0.2 µM (340 wild-type kinases [3]) was 102%, the remaining activity at 1 µM (340 wild-type kinases [4]) was 80.8% and the “CD4^+ T cells in CRC liver metastases (in words)” value (immune cells; 4 days of treatment) was “increases the number of CD4^+ T cells”. The “CD4+, % of CD3+ cells” value (immune cells; Blood) was 59.0% and 54.5% and 53.0% and 56.9%, the “CD8+, % of CD3+ cells” value (immune cells; Blood) was 35.8% and 35.1% (2×) and 39.0% and the “CD69+ % of CD4+ T cells” value (immune cells; Liver) was 11.90% and 8.89% and 6.59% and 10.70%. For the same molecule, the “CD69+ % of CD8+ T cells” value (immune cells; Liver) was 5.92% and 8.71% and 6.52% and 6.93%, the “CD69+ % of T cells” value (immune cells; Liver) was 9.86% and 8.16% and 6.40% and 10.30% and the “CD4+, % of CD3+ cells” value (immune cells; Spleen) was 67.8% and 63.7% and 64.1% and 65.2%. For the same molecule, the “CD8+, % of CD3+ cells” value (immune cells; Spleen) was 25.5% and 28.8% and 28.3% and 27.0%, the “CD4+, % of CD3+ cells” value (immune cells; Tumor) was 74.4% and 79.8% and 62.9% and the “CD8+, % of CD3+ cells” value (immune cells; Tumor) was 13.6% and 8.5% and 20.0%. For the same molecule, the “CD69+ % of CD4+ T cells” value (immune cells; Tumor) was 56.80% and 69.90% and 47.60%, the “CD69+ % of CD8+ T cells” value (immune cells; Tumor) was 44.60% and 54.20% and 52.00% and the “CD69+ % of T cells” value (immune cells; Tumor) was 49.80% and 60.30% and 42.10%. The “B cells, % of living cells” value (immune cells; healthy mice) was 45.80% and 42.90% and 40.80% and 40.90%, the “CD4+ T cells, % of living cells” value (immune cells; healthy mice) was 22.70% and 22.50% and 25.00% and 24.30% and the “CD8+ T cells, % of living cells” value (immune cells; healthy mice) was 10.00% and 8.13% and 10.80%. The “Dendritic cells, % of living cells” value (immune cells; healthy mice) was 2.32% and 3.09% and 2.65% and 2.11%, the “Granulocytes, % of living cells” value (immune cells; healthy mice) was 4.12% and 5.18% and 4.35% and 4.21% and the “Monocytes, % of living cells” value (immune cells; healthy mice) was 2.59% and 2.56% and 2.30% and 2.36%. The “NK cells, % of living cells” value (immune cells; healthy mice) was 2.30% and 4.22% and 4.00% and 4.77%, the “T cells, % of living cells” value (immune cells; healthy mice) was 35.20% and 32.90% and 37.90% and 36.50% and the “B cells, % of living cells” value (immune cells; tumor mice (KAP metastases)) was 40.60% and 49.20% and 45.00% and 44.10%. For the same molecule, the “CD4+ T cells, % of living cells” value (immune cells; tumor mice (KAP metastases)) was 26.10% and 18.70% and 20.10% and 20.40%, the “CD8+ T cells, % of living cells” value (immune cells; tumor mice (KAP metastases)) was 9.80% and 8.43% and 8.87% and 8.45% and the “Dendritic cells, % of living cells” value (immune cells; tumor mice (KAP metastases)) was 3.14% and 2.58% and 3.53% and 2.01%. For the same molecule, the “Granulocytes, % of living cells” value (immune cells; tumor mice (KAP metastases)) was 3.71% and 4.06% and 4.14% and 4.54%, the “Monocytes, % of living cells” value (immune cells; tumor mice (KAP metastases)) was 3.31% and 3.61% and 4.85% and 6.16% and the “NK cells, % of living cells” value (immune cells; tumor mice (KAP metastases)) was 3.40% and 4.06% and 3.95% and 4.77%. For the same molecule, the “T cells, % of living cells” value (immune cells; tumor mice (KAP metastases)) was 38.40% and 29.30% and 31.40% and 31.30% and the “DNA content (in words)” value (KAP^2D cells) was “strong induction of aneuploidy and polyploidy”.
